Patent US6515124B2, “Dehydroamino acids” (Hoffman-La Roche Inc., priority 2000, dated 2003)

Experiments:
[1] = target: T1, LFA-1 binding to immobilized ICAM-1 (Homo sapiens, UniProt P05107+P20701); assay: LFA-1/ICAM-1 Protein-Protein Assay (solid-phase ELISA); settings: 5dICAM-Ig coated plates; membrane-bound LFA-1 from transfected 293 cells
T1 construct: made in house; host or cells: transfected 293 cells (LFA-1)
Method: LFA-1/ICAM-1 Protein-Protein Assay
LFA-1/ICAM-1 antagonist activity, defined as the ability to block LFA-1 binding to immobilized ICAM-1, was quantitated using a solid-phase ELISA. Typically, fusion protein consisting of the entire extracellular domain of human ICAM-1 and the Fc domain of human IgG (5dICAM-Ig) was coated onto 96-well microtiter plates (0.15 μg in 100 μL PBS) overnight at 4° C. The plates were then blocked with 150 μL of 1% BSA/1 mM MnCl2/0.14 M NaCl/20 mM HEPES, pH 7.2 for 1 h at 37° C. and washed 3 times (150 μL each) with Wash Buffer (50 mM Tris, pH 7.4/100 mM NaCl/1 mM MnCl2/0.05% Tween 20). Stock solutions (100 μM in 100% DMSO) of test compounds were diluted 50 fold with 150 μL of Binding Buffer (0.05% BSA/0.05% Tween 20/1 mM MnCl2/0.14 M NaCl/20 mM HEPES, pH 7.2) plus 10% DMSO. A series of 1:4 dilutions were performed to achieve a concentration range of 0.12 nM-2 μM. Fifty μL per well of each dilution was added to the ICAM-1 coated plates, followed by 50 μL per well of membrane-bound LFA-1 (280 ng/mL in Binding Buffer) derived from transfected 293 cells. The plates were shaken vigorously for 1 min (room temperature) and gently for 2 h (37° C.). After incubation, the plates were washed 3 times (150 μL each) with Wash Buffer. Mouse anti-human integrin β2 monoclonal antibody was added (100 μL/well, 1 μg/ml in Binding Buffer) and allowed to incubate for 1 h (37° C.) with gentle agitation. The plates were then washed 3 times with Wash Buffer. HRP-conjugated goat anti-mouse IgG (100 μL/well, 1:1500 dilution in Binding Buffer) was added to each well, followed by incubation for 1 h (37° C.) and concluded by three washes (150 μL each) with Wash Buffer. TMB solution (100 μL per well) was added for color development (10 min). The reaction was stopped by the addition of 100 μL of 1M H3PO4 to each well. The plates were then read at 450 nm.

[2] = system: T lymphocyte proliferation (murine spleen cells); assay: Mixed Lymphocyte Reaction (MLR), one-way; assay type: cell-based, mice; settings: Mus musculus, T-lymphocyte, light or radiation study, 72 h, C57B1/6 spleen cells with irradiated BALB/c spleen cells; tritiated thymidine incorporation, 3 days
Description: Mixed Lymphocyte Reaction (MLR)
Admixture of murine spleen cells from two different inbred strains of mice induces proliferation of T lymphocytes. The magnitude of T cell proliferation depends on the extent of disparity in the major histocompatibility antigens between the two strains. Splenic T lymphocytes from both strains proliferate due to alloantigen recognition, a process for which the interaction of ICAM-1 on antigen-presenting cells with LFA-1 on lymphocytes is necessary. The ability of antagonists to inhibit T lymphocyte proliferation following recognition of alloantigens was assessed in a one-way MLR, where cells from one strain were irradiated to permit measurement of the proliferative response of cells from the other strain. Spleen cells were washed three times in tissue culture medium (TCM; see below). Fifty microliters of a spleen cell suspension (prepared at 10×10^6 cells/ml in TCM) obtained from C57B1/6 mice were added to an equal number of lethally-irradiated (2000 rads) spleen cells obtained from BALB/c mice in a 96-well U-bottom tissue culture plate (Costar, 3799). One hundred microliters of serial dilutions of antagonists or TCM were added to the spleen cell mixture. The total volume in each well was 200 μL. TCM was RPMI1640 containing 10% heat-inactivated fetal bovine serum, […] L-glutamine, 100 Units/ml each of penicillin and streptomycin and 5×10^−5 M 2-mercaptoethanol. Dilutions of antagonists were prepared in TCM. Plates were incubated in 5% CO2 for 3 days. On the third day, 0.5 μCi of tritiated thymidine (10 μCi/mL) was added to all the wells. Cells were harvested 6 h later on a 96-well plate harvester and the amount of tritiated thymidine incorporated was assessed in a liquid scintillation counter.

T1 sequence (P20701 26-1170): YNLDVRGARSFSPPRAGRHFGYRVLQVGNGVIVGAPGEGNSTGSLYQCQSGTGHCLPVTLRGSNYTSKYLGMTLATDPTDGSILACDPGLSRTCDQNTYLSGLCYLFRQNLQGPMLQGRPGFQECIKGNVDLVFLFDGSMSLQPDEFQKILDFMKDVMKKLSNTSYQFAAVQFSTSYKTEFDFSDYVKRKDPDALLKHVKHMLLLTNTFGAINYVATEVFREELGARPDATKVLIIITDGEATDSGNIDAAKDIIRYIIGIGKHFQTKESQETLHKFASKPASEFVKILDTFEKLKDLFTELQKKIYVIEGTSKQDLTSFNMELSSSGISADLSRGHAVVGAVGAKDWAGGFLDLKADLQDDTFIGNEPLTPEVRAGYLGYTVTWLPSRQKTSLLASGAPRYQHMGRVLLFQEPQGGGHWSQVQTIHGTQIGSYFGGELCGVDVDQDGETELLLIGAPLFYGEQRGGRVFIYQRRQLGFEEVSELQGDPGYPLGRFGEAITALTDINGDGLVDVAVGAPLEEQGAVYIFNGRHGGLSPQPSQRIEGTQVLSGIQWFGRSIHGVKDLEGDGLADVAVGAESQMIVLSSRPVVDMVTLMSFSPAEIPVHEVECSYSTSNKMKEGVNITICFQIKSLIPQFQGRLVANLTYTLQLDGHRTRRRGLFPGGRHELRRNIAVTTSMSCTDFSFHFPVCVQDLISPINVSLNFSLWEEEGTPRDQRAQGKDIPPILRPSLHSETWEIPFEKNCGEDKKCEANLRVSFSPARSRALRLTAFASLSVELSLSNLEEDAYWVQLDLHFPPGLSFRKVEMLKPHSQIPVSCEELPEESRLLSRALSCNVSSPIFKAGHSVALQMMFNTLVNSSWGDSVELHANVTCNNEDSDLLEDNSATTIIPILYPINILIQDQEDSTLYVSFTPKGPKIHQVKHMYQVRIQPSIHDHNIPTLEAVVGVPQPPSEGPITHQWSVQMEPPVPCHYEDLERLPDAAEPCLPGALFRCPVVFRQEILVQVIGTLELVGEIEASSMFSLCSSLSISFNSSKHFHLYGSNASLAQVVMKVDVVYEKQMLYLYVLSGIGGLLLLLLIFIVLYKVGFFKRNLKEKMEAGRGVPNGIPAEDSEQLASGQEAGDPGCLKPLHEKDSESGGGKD
T1 sequence (P05107 23-769): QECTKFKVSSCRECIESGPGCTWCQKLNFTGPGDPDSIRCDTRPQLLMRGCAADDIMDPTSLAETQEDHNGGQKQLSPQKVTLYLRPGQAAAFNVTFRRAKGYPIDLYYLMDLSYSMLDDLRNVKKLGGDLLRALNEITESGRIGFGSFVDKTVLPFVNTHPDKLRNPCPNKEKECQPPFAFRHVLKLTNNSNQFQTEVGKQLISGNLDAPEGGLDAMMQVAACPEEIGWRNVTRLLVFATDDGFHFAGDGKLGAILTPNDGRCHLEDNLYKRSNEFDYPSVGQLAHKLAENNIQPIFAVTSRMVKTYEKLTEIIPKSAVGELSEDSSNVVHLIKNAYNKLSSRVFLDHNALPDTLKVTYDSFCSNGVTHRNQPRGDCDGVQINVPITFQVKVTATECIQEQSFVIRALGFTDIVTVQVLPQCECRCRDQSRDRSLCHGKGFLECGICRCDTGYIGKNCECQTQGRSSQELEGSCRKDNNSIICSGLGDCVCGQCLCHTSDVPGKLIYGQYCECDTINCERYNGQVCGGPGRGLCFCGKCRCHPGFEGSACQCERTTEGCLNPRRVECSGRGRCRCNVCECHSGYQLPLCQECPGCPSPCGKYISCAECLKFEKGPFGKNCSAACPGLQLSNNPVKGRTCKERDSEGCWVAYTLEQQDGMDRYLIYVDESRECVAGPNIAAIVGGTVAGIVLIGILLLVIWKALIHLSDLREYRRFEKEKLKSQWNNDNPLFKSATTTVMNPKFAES

| SMILES | IC50 [1] [nM] | melting point [°C] | IC50 [2] [nM] |
| --- | --- | --- | --- |
| O=C(O)/C(=C/c1ccccc1)NC(=O)c1ccc(C(=O)NCc2cccc(O)c2)cc1Br [Example 269] | 4.31 | – | 2200 |
| O=C(O)/C(=C/c1cnc[nH]1)NC(=O)c1ccc(C(=O)NCc2cccc(O)c2)cc1Br [Example 278] | 2 | – | 1450 |
| Cc1nc(C)c(/C=C(\NC(=O)c2ccc(C(=O)NCc3cccc(O)c3)cc2Cl)C(=O)O)s1 [Example 244] | 1.95 | – | 3000 |
| O=C(O)/C(=C/c1nccs1)NC(=O)c1ccc(C(=O)NCc2cccc(O)c2)cc1Br [Example 268, (Z)-2-[[2-Bromo-4-[[(3-hydroxybenzyl)amino]carbonyl]benzoyl]amino]-3-(thiazol-2-yl)propenoic Acid] | 10.6 | – | 9000 |
| Cc1nc(C)c(/C=C(\NC(=O)c2ccc(C(=O)CCc3cccc(O)c3)cc2Cl)C(=O)O)s1 [Example 295] | 3 | – | 10000 |
| Cc1nnsc1/C=C(\NC(=O)c1ccc(C(=O)NCc2cccc(O)c2)cc1Br)C(=O)O [Example 263] | 6.86 | – | 2850 |
| Cc1nc(/C=C(\NC(=O)c2ccc(C(=O)NCc3cccc(O)c3)cc2Br)C(=O)O)cs1 [Example 235, (Z)-2-[[2-Bromo-4-[[(3-hydroxybenzyl)amino]carbonyl]benzoyl]amino]-3-(2-methylthiazol-4-yl)propenoic Acid] | 42.9 | – | 13500 |
| O=C(O)/C(=C/c1cnc2ccccc2c1)NC(=O)c1ccc(C(=O)NCc2cccc(O)c2)cc1Cl [Example 283] | 0.79 | – | 370 |
| Cc1noc(C)c1/C=C(\NC(=O)c1ccc(C(=O)NCc2cccc(O)c2)cc1Br)C(=O)O [Example 281] | 244 | – | 14500 |
| O=C(O)/C(=C/c1cnc2ccccc2c1)NC(=O)c1ccc(C(O)CCc2cccc(O)c2)cc1Cl (racemic) [Example 296, rac.-(Z)-2-[[2-Chloro-4-[1-hydroxy-3-(3-hydroxyphenyl)propan-1-yl]benzoyl]amino]-3-(quinolin-3-yl)propenoic Acid] | 1.56 | – | 2400 |
| O=C(O)/C(=C/c1ccncc1)NC(=O)c1ccc(C(=O)NCc2cccc(O)c2)cc1Br [Example 280] | 5 | – | 860 |
| O=C(O)/C(=C/c1cnc(Cl)s1)NC(=O)c1ccc(C(=O)NCc2cccc(O)c2)cc1Cl [Example 266] | 2.7 | – | 9000 |

Now from value to compound, other results behind:

| IC50 [1] [nM] | melting point [°C] | SMILES | IC50 [2] [nM] |
| --- | --- | --- | --- |
| 1.89 | – | O=C(O)/C(=C/c1cc2c(cc1Cl)OCO2)NC(=O)c1ccc(C(=O)NCc2cccc(O)c2)cc1Cl [Example 315] | 2500 |
| 7.52 | – | Cc1nc(C)c(/C=C(\NC(=O)c2ccc(C(=O)NCc3cccc(N)c3)cc2Br)C(=O)O)s1 [Example 321] | 11500 |
| 3.05 | – | O=C(O)/C(=C/c1ccc(Br)cc1)NC(=O)c1ccc(C(=O)NCc2cccc(O)c2)cc1Cl [Example 314, (Z)-3-(4-Bromophenyl)-2-[[2-chloro-4-[[(3-hydroxybenzyl)amino]carbonyl]benzoyl]amino]propenoic Acid] | 6100 |
| 4.7 | – | Cc1cc(C(=O)NCc2cccc(O)c2)ccc1C(=O)N/C(=C\c1cnc2ccccc2c1)C(=O)O [Example 312] | 990 |
| 3 | > 200 | CCc1nc(C)c(/C=C(\NC(=O)c2ccc(C(=O)NCc3cccc(O)c3)cc2Cl)C(=O)O)s1 [Example 304, (Z)-2-[[2-Chloro-4-[[(3-hydroxybenzyl)amino]carbonyl]benzoyl]amino]-3-(2-ethyl-4-methylthiazole-5-yl)propenoic Acid] | 2100 |
| 4.13 | – | Cn1ccc2ccc(/C=C(\NC(=O)c3ccc(C(=O)NCc4cccc(O)c4)cc3Cl)C(=O)O)cc21 [Example 305] | 7250 |
